Measurements: US7645738B2, “18-membered nitrobenzyl- and aminobenzyl-substituted cyclohexadepsipeptides for controlling endoparasites and a process for their preparation” (Bayer Animal Health GmbH, priority 2003, dated 2010)

Columns and labels:
log P value from HPLC = format: physicochemical; conditions: 0.1% phosphoric acid/acetonitrile gradient
Experimental: HPLC (0.1% phosphoric acid/acetonitrile; gradient: 90/10 (1) 5%/min, 5/95 (6); flow rate: 1.5 mil/min; UV: 210 nm): Rt=12.57 min; log P value 3.58.

Haemonchus contortus = test: In vivo nematode test Haemonchus contortus/sheep; conditions: sheep experimentally infected with Haemonchus contortus; applied orally and/or intravenously as pure active compound; complete cessation of egg excretion after treatment
Experimental: Haemonchus contortus/sheep
Sheep which had been experimentally infected with Haemonchus contortus were treated after the prepotency time of the parasite had elapsed. The active compounds were applied orally and/or intravenously as pure active compound.
(§1) The degree of effectiveness is determined by quantitatively counting the worm eggs which have been excreted with the faeces before and after the treatment.
(§2) A complete cessation of egg excretion after the treatment means that the worms have been aborted or damaged to such an extent that they no longer produce eggs (dosis effectiva).
(§3) Active compounds tested and effective dosage rates (dosis effectiva) can be seen from the table which follows.

[1] = test system: Trichostrongylus colubriformis; test: In vivo nematode test Trichostrongylus colubriformis/sheep; conditions: sheep experimentally infected with Trichostrongylus colubriformis; applied orally and/or intravenously as pure active compound; complete cessation of egg excretion after treatment
Experimental: Trichostrongylus colubriformis/sheep
Sheep which had been experimentally infected with Trichostrongylus colubriformis were treated after the prepotency time of the parasite had elapsed. The active compounds were applied orally and/or intravenously as pure active compound.
as §1, §2, §3

| SMILES | chromatographic logP (log P value from HPLC) | Effective dosage (dosis effectiva) (Haemonchus contortus) [mg/kg] | Effective dosage (dosis effectiva) [1] [mg/kg] | melting point [°C] |
| --- | --- | --- | --- | --- |
| CCC(C)[C@H]1C(=O)O[C@H](Cc2ccccc2)C(=O)N(C)[C@@H](C(C)CC)C(=O)O[C@H](C)C(=O)N(C)[C@@H](C)C(=O)O[C@H](C)C(=O)N1C (stereo partly drawn) [Example II-1, Cyclo(-N-methyl-L-alanyl-D-lactyl-N-methyl-L-isoleucyl-D-phenyllactyl-N-methyl-L-isoleucyl-D-lactyl-)] | 4.23 | – | – | – |
| CCC(C)[C@H]1C(=O)O[C@H](Cc2ccc(NCCS(=O)(=O)CCO)cc2)C(=O)N(C)[C@@H](C(C)CC)C(=O)O[C@H](C)C(=O)N(C)[C@@H](C)C(=O)O[C@H](C)C(=O)N1C (stereo partly drawn) [Example I-2, Cyclo(-N-methyl-L-alanyl-D-lactyl-N-methyl-L-isoleucyl-D-4-(2-hydroxyethyl-sulphonyl-ethylamino-phenyl)lactyl-N-methyl-L-isoleucyl-D-lactyl-)] | – | 0.10 | – | – |
| CCC(C)C1C(=O)OC(Cc2ccccc2N)C(=O)N(C)C(C(C)CC)C(=O)OC(C)C(=O)N(C)C(C)C(=O)OC(C)C(=O)N1C [Example IV-1, Cyclo(-N-methyl-L-alanyl-D-lactyl-N-methyl-L-isoleucyl-D-2-amino-phenyllactyl-N-methyl-L-isoleucyl-D-lactyl-)] | – | 0.05 | – | – |
| CC[C@H](C)[C@H]1C(=O)O[C@H](Cc2cccc(N)c2)C(=O)N(C)[C@@H]([C@@H](C)CC)C(=O)O[C@H](C)C(=O)N(C)[C@@H](C)C(=O)O[C@H](C)C(=O)N1C [Example IV-2, Cyclo(-N-methyl-L-alanyl-D-lactyl-N-methyl-L-isoleucyl-D-3-amino-phenyllactyl-N-methyl-L-isoleucyl-D-lactyl-)] | – | 0.05 | 0.25 | – |
| CCC(C)[C@H]1C(=O)O[C@H](Cc2ccc([N+](=O)[O-])cc2)C(=O)N(C)[C@@H](C(C)CC)C(=O)O[C@H](C)C(=O)N(C)[C@@H](C)C(=O)O[C@H](C)C(=O)N1C (stereo partly drawn) [Example III-1, Cyclo(-N-methyl-L-alanyl-D-lactyl-N-methyl-L-isoleucyl-D-4-nitro-phenyllactyl-N-methyl-L-isoleucyl-D-lactyl-)] | – | – | – | 122 to 126 |
| CCC(C)[C@H]1C(=O)O[C@H](Cc2ccc(N3CCOCC3)cc2)C(=O)N(C)[C@@H](C(C)CC)C(=O)O[C@H](C)C(=O)N(C)[C@@H](C)C(=O)O[C@H](C)C(=O)N1C (stereo partly drawn) [Example I-1, Cyclo(-N-methyl-L-alanyl-D-lactyl-N-methyl-L-isoleucyl-D-4-morpholino-phenyllactyl-N-methyl-L-isoleucyl-D-lactyl-)] | 3.58 | 0.10 | 0.25 | – |
